Laboratory results as given in article PMC2360532, “Somatostatin receptor expression, tumour response, and quality of life in patients with advanced hepatocellular carcinoma treated with long-acting octreotide” (British Journal of Cancer, 2006).

Columns and labels:
[1] = test system: patients with advanced HCC; experiment: Serious adverse events and tolerability; type: in vivo, human
Method: The planned duration of treatment was 12 months in the absence of disease progression, unacceptable toxicity, or withdrawal at the patient's or doctor's discretion. An extension phase allowed treatment to continue beyond 12 months on an individual basis at the discretion of the principal investigator.
Subjects were seen monthly for clinical review, blood tests, and administration of the study drug. Response was assessed using the RECIST (response evaluation criteria in solid tumours) criteria ([Therasse et al, 2000]). Radiological assessment was undertaken 3-monthly and any partial or complete responses were confirmed 1 month later.

[2] = patients who remained on the study for 6 months or more
Text: (§1) Blood was also sampled for octreotide pharmacokinetics and assessment of chromogranin A levels before the 4th and 7th doses.
(§2) Samples were taken immediately before the 4th and 7th doses of octreotide (weeks 12 and 24 of treatment). These time points were selected in order to assess trough octreotide plasma concentrations at steady state after three doses and to determine potential octreotide accumulation in this cirrhotic population with more continued dosing. Additional samples were also collected in some cases. […] The lower limit of quantification was 50 pg ml^−1 for a 50 μl plasma sample.

[3] = test system: HCC; settings: ref Kouroumalis et al (1998), cited from earlier work
Text: High-affinity somatostatin receptors capable of binding octreotide are present in approximately 40% of HCC, and not in adjacent liver. However, the numbers of high-affinity receptors are lower than reported for neuroendocrine tumours ([Reubi et al, 1999]). Somatostatin is a potent inhibitor of several growth factors and angioneogenesis ([Flori ... || Most patients with advanced HCC have a dismal prognosis ([Leung and Johnson, 2001]). However, a treatment that benefits only a subset of patients may still be clinically worthwhile. The very different outcomes in the randomised trials by Kouroumalis and Yuen probably reflect differences in patient selection ([Kouroumalis et al, 1998]; [Yuen et al, 2002]). The Yuen study had subjects with more advanced disease, a higher proportion with viral hepatitis, and a median survival of only 2 months. Our study population was more similar to the Kouroumalis study population (Table 4) and our median survi ...

[4] = cited from earlier work
Text: Safety is important for people with comorbidities. There is limited information available about the elimination kinetics of octreotide in cirrhosis. […] Since pharmacokinetics may be altered in patients with cirrhosis, it was considered necessary to determine whether liver impairment predisposes to toxicity and ...

[5] = clinical; settings: human, plasma, im, 20 mg
Text: as §1, §2

[6] = short-acting form, ref Jenkins et al (1998)

For `C[C@@H](O)[C@@H]1NC(=O)[C@H](CCCCN)NC(=O)[C@@H](Cc2c[nH]c3ccccc23)NC(=O)[C@H](Cc2ccccc2)NC(=O)[C@@H](NC(=O)[C@H](N)Cc2ccccc2)CSSC[C@@H](C(=O)N[C@H](CO)[C@@H](C)O)NC1=O` [octreotide], the “Serious adverse events attributed to the drug” value ([1]; 20 mg i.m. every 28 days, advanced HCC) was “No serious adverse events were attributed”, the “Treatment stopped because of adverse effects (cramps), cases” value ([1]; 63 patients) was “one” and the “Accumulation of octreotide in plasma” value [2] was “no evidence of accumulation”. The Median survival ([3]; short-acting octreotide arm vs 4 months in untreated control, HCC) was 13 months, the 12-month survival ([3]; short-acting octreotide arm vs 13% in untreated control, P=0.002) was 56% and the Plasma concentrations ([4]; 30 mg i.m. dose, six patients with acromegaly (noncirrhotic), ref Stewart et al, 1995) was 1.682 ± 0.174 ng/mL. For the same compound, the “Clearance in patients with cirrhosis” value [4, 6] was “reduced”, the “Half-life in patients with cirrhosis” value [4, 6] was “prolonged” and the level at 2016 h [5] was 2.21 ng/mL. The level at 4032 h [5] was 3.38 ng/mL and the level at 6480 h [5] was 3.24 ng/mL.
